Measured values from PMC6220272, “Scaffold-Hopping from Synthetic Drugs by Holistic Molecular Representation” (Scientific Reports, 2018).

Columns and labels:
Format in all cases: cell-based
[1] = biological target: T1, human RXRα ligand binding domain (Gal4 hybrid receptor) (Homo sapiens, UniProt P19793); test: Gal4 hybrid reporter gene assay RXRα; details: HEK293T cells, n ≥ 4, read-out: RXRα EC50 ± SEM
T1 construct: expressed in transfected cells; host or cells: HEK293T
T1 sequence (P19793 227-458 limits assumed): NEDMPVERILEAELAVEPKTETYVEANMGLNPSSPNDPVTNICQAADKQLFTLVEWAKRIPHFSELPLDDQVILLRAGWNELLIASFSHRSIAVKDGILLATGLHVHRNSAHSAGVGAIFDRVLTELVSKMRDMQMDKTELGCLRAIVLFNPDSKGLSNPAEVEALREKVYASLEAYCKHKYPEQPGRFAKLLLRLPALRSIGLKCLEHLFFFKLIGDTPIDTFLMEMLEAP
Procedure: (§1) The 20 top-ranked synthetic compounds were selected and tested in vitro for their modulatory activity on RXR (Supplementary Table 1). Compounds were tested in specific hybrid reporter gene assays for RXRα, RXRβ and RXRγ modulation[39]–[41]. These assays rely on a constitutively expressed hybrid receptor composed of the respective human RXR ligand binding domain and the DNA binding domain of the Gal4 receptor from yeast. A Gal4 responsive firefly luciferase was used as reporter gene and constitutively expressed renilla luciferase served as internal control for transfection efficiency and test compound toxicity. All selected compounds were tested at 50 µM concentration on RXRα and for active compounds (Supplementary Fig. 1), dose response curves were recorded on all three RXR subtypes.
(§2) The Gal4 hybrid reporter gene assays were conducted as reported previously[39]–[41]. pFA-CMV-based constructs comprising the ligand binding domain of the human nuclear receptor in question were used as expression plasmids for the chimera receptors. pFR-Luc (Stratagene) served as reporter plasmid and pRL-SV40 (Promega) for normalization of transfection efficiency and cell growth. The assays were conducted in 96-well format in HEK293T cells that were cultured as described previously[39]–[41]. Transient transfection was carried out using Lipofectamine LTX reagent (Invitrogen) according to the manufacturer’s protocol. After transfection and incubation with test compounds (12–14 h), cells were assayed for luciferase activity using Dual-Glo™ Luciferase Assay System (Promega) according to the manufacturer’s protocol. Luminescence was measured with an Infinite M200 luminometer (Tecan Deutschland GmbH). All hybrid assays were validated with reference agonists (PPARα: GW7647; PPARγ: pioglitazone; PPARδ: L165,041; LXRα/β: T0901317; FXR: GW4064; RXRs: bexarotene; RARs: tretinoin; VDR: calcitriol; CAR: CITCO; PXR: SR12813) which yielded EC50 values in agreement with literature. The assays were conducted in duplicates with at least two independent repeats and for active compounds repeated without hybrid receptor coding DNA for every test compound at the highest tested concentration to exclude unspecific effects.
(§3) Supplementary Figure 2. Dose-response curves for RXRα activation. Compounds were tested in specific hybrid reporter gene assays for RXRα, RXRβ and RXRγ modulation.^1–3 These assays rely on a constitutively expressed hybrid receptor composed of the respective human RXR ligand binding domain and the DNA binding domain of the Gal4 receptor from yeast. A Gal4 responsive firefly luciferase was used as reporter gene and constitutively expressed renilla luciferase served as internal control for transfection efficiency and test compound toxicity. […]

[2] = biological target: T2, human RXRγ ligand binding domain (Gal4 hybrid receptor) (Homo sapiens, UniProt P48443); test: Gal4 hybrid reporter gene assay RXRγ; details: HEK293T cells, n ≥ 4, read-out: RXRγ EC50 ± SEM
T2 construct: expressed in transfected cells; host or cells: HEK293T
T2 sequence (P48443 231-459 limits assumed): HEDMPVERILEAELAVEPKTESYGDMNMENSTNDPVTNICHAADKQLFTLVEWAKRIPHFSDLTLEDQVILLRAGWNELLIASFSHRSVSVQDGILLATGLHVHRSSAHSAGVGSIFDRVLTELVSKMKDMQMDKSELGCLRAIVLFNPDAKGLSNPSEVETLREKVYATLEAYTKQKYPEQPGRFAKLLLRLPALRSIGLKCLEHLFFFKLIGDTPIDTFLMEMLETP
Procedure: as §1, §2, §3

[3] = biological target: T3, human RXRβ ligand binding domain (Gal4 hybrid receptor) (Homo sapiens, UniProt P28702); test: Gal4 hybrid reporter gene assay RXRβ; details: HEK293T cells, n ≥ 4, read-out: RXRβ EC50 ± SEM
T3 construct: expressed in transfected cells; host or cells: HEK293T
T3 sequence (P28702 296-529 limits assumed): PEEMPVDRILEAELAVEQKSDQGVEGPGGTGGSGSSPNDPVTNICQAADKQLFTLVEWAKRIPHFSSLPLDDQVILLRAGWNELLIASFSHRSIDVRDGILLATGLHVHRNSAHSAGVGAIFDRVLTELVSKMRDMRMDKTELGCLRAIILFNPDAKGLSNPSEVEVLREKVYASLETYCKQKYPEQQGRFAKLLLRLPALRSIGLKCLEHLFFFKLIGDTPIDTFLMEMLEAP
Procedure: as §1, §2, §3

EC50 [1] [µM] | EC50 [2] [µM] | EC50 [3] [µM] | SMILES
16.5 ± 0.6 | 16 ± 4 | 16.6 ± 0.2 | CC(NC(=O)c1cccc(OCc2ccccc2)c1)c1ccccc1 (stereo not drawn) [Compound 6]
17 ± 1 | 15 ± 0.6 | 14.7 ± 0.8 | Cc1ccc(NC2=NC(=O)/C(=C/c3ccc(O)cc3)S2)cc1C [Compound 5]
23.7 ± 0.7 | 32 ± 3 | 25.6 ± 0.4 | CC/C(=N/NC(=S)Nc1ccc(Cl)cc1Cl)c1ccc(O)cc1 [Compound 8]
